Experimental data as given in article PMC8658989, “Synthesis and Biological Studies on (KLAKLAK)2-NH2 Analog Containing Unnatural Amino Acid β-Ala and Conjugates with Second Pharmacophore” (Molecules, 2021).
No end group written: not given here.

What was measured:
MCF-7 [1] = experiment: Antiproliferative activity, MTT dye-reduction assay, MCF-7; format: cell-based, human; details: SI = IC50 of MCF-10A/IC50 of MCF-7
Protocol: (§1) The compounds were studied for antiproliferative activity by MTT dye-reduction assay. Cell cultures from different cell lines (MCF-10A, MCF-7 and MDA-MB-231) were incubated with the test substances at a concentration of 15 to 2000 μM for 72 h at 37 °C, 5% CO2 and 95% humidity. The antiproliferative activity expressed in % relative to the negative control was determined.
(§2) The antiproliferative activity testing was performed on cell cultures from several human cell lines using the standard MTT dye-reduction assay, described by Mosmann. The assay is based on the metabolism of the tetrazolium salt 3-(4,5-dimethylthiazol-2-yl)-2,5-diphenyltetrazolium bromide (MTT) to insoluble formazan by mitochondrial reductases. The formazan concentration can be determined spectrophotometrically. The measured absorption is an indicator of cell viability and metabolic activity. The following cell lines were used in the experiments: mammary gland type A adenocarcinoma ER+, PR+ and HER2− (MCF-7); triple-negative breast cancer ER−, PR−, and HER2− (MDA-MB-231); and breast, nontumorigenic epithelial cell line (MCF-10A). The cell lines were routinely grown as monolayers in 75 cm^2 tissue culture flasks under standard conditions (described above). Cells were plated at a density of 1 × 10^3 cells in 100 µL in each well of 96-well flat-bottomed microplates and allowed to adhere for 24 h before treatment with test compounds. A concentration range from 15 to 2000 μM was applied for 72 h. Formazan absorption was registered using a microplate reader at λ = 540 nm. Antiproliferative activities were expressed as IC50 values (concentrations required for 50% inhibition of cell growth), calculated using nonlinear regression analysis (GraphPad Prism 4 Software, https://www.graphpad.com).

MDA-MB-231 [2] = experiment: Antiproliferative activity, MTT dye-reduction assay, MDA-MB-231; format: cell-based, human; details: SI = IC50 of MCF-10A/IC50 of MDA-MB-231
Protocol: as §1, §2

MCF-10A = tested on: MCF-10A; set-up: method as in PMID 33567789; details: MTT; data already published; ref [25]; read-out: IC50 of Mean ± SD Antiproliferative Activity MCF-10A; cited from earlier work
MCF-7 [3] = tested on: MCF-7; set-up: method as in PMID 33567789; details: MTT; data already published; ref [25]; read-out: IC50 of Mean ± SD Antiproliferative Activity MCF-7; cited from earlier work
MDA-MB-231 [4] = tested on: MDA-MB-231; set-up: method as in PMID 33567789; details: MTT; data already published; ref [25]; read-out: IC50 of Mean ± SD Antiproliferative Activity MDA-MB-231; cited from earlier work

In the case of CC(C)C[C@H](NC(=O)[C@H](CCCCN)NC(=O)[C@H](C)NC(=O)[C@H](CC(C)C)NC(=O)[C@H](CCCCN)NC(=O)[C@H](CCCCN)NC(=O)[C@H](C)NC(=O)[C@H](CC(C)C)NC(=O)[C@H](CCCCN)NC(=O)[C@H](C)NC(=O)[C@H](CC(C)C)NC(=O)[C@@H](N)CCCCN)C(=O)N[C@@H](C)C(=O)N[C@@H](CCCCN)C(N)=O [Si1, (KLAKLAK)2-NH2], the “SI ± SD MCF-7 (selective index)” value (MCF-7 [1]) is listed as 1.243 ± 0.052, the “SI ± SD MDA-MB-231 (selective index)” value (MDA-MB-231 [2]) is listed as 0.206 ± 0.007 and the IC50 (MCF-10A) is listed as 154 ± 6.53 µM. The IC50 (MCF-7 [3]) was 124 ± 8.12 µM and the IC50 (MDA-MB-231 [4]) was 746 ± 7.6 µM.

For KLAKLAK-NH2 [Si6], the IC50 (MCF-10A) is given as greater than 2000 µM, the IC50 (MCF-7 [3]) is given as greater than 2000 µM and the IC50 (MDA-MB-231 [4]) is given as greater than 2000 µM.
